Results from PMC4201456, “Cytoxicity and Apoptotic Mechanism of Ruthenium(II) Amino Acid Complexes in Sarcoma-180 Tumor Cells” (PLoS ONE, 2014).

How the values were obtained:
S180 tumor cells = test: MTT cell viability assay, S180 tumor cells; assay type: cell-based, murine; details: S180 tumor cell line, 48 h
Experimental: The murine sarcoma-180 tumor cells (S180) (ATCC# TIB-66) and normal murine fibroblast cells (L-929) (ATCC# CCL-1) were cultured in suspension in RPMI 1640 and DMEM media (Sigma Chemical Co., MO), respectively, supplemented with 10% fetal calf serum, 100 µg/mL penicillin, and 100 µg/mL streptomycin. The cultures were incubated in a humidified incubator (Thermo Scientific) at 37°C with 5% CO2.
The cytotoxic effects of the amino acid ruthenium complexes were evaluated using an MTT assay with S180 tumor cells and L929 normal cells as described previously. Briefly, 1.0×10^5 S180 cells and 2.0×10^4 L929 cells were plated in 96-well tissue culture plates and treated with different concentrations of amino acid ruthenium complexes (0.2–200 µM) for 48 h. After treatment, 10 µL of MTT (5 mg mL^−1) was added to each well, and the plates were incubated at 37°C for an additional 3 h. The purple formazan crystals were dissolved in 50 µL of SDS, and the absorbance was determined at 545 nm using a Stat Fax 2100 microplate reader (Awareness Technology, Palm City, FL, USA). The cell viability was calculated as follows: viability (%) = (absorbance of the treated wells)/(absorbance of the control wells) ×100. The IC50 (complex concentration (µM) that results in a 50% reduction in cellular viability) was obtained from dose-response curves using GraphPad Prism 4.02 for Windows (GraphPad Software, San Diego, CA, USA).

S180 cells = test: Mitochondrial membrane potential, JC-1 flow cytometry; assay type: cell-based, murine; details: 24 h; for percentage of cells with depolarized mitochondria: control 11.5%; for percentage of cells showing red fluorescence (upper-right quadrant): control 88.5%
Experimental: The effect of complex 2 on the mitochondrial membrane potential (ΔΨm) was measured using JC-1 dye (BD Biosciences) by flow cytometry according to the manufacturer's instructions. Briefly, 3.0×10^5 S180 cells were treated with complex 2 (40 µM and 60 µM) for 24 h. After incubation, the cells were harvested and washed with PBS. The cells were then incubated with JC-1 dye (BD Biosciences) for 15 min at 37°C in the dark. The stained cells were washed, resuspended in assay buffer, and immediately analyzed by flow cytometry. The data were analyzed using the Cell Quest software.

caspase-3 = test: Caspase activity colorimetric assay (DEVD-pNA); assay type: cell-based, murine; details: S180 cells, 24 h, control 100%
Experimental: Direct measurement of the activity of caspases 3, 8, and 9 were performed using the ApoTarget Caspase 3, 8, and 9 Protease Assay (Invitrogen) according to the manufacturer's recommendations. After treatment with complex 2 (40 µM and 60 µM) for 24 h, the cells were lysed with chilled cell lysis buffer. The protein concentration was then measured using the BSA Protein Assay Kit (BioRad). An aliquot of the protein extract (75 µg) was mixed with 50 µL of 2X reaction buffer supplemented with 10 mM DTT and the substrates of DEVD-pNA (caspase-3), IETD-pNA (caspase-8), or LEHD-pNA (caspase-9). The mixtures were then incubated for 2 h at 37°C. Subsequently, the formation of p-nitroanilide in the samples was measured using an ELISA microplate reader at 405 nm. The increases in the activities of caspase-3, caspase-8, and caspase-9 were determined by comparing the results with the control.

pBR322 plasmid DNA = test: Atomic force microscopy of plasmid DNA; assay type: binding; details: incubated 24 h at 37°C
Experimental: For the atomic force microscopy (TMAFM) experiment, the pBR322 plasmid was heated at 60°C for 10 minutes to obtain the OC form. The concentration of the stock solution was 1 mg/mL in HEPES buffer (4 mM HEPES (pH 7.4) and 2 mM MgCl2. Each sample contained 1 µL of pBR322 plasmid at a concentration of 0.25 µg/µL in a final volume of 40 µL. The amount of complex 2 added is expressed as ri. AFM samples were prepared by casting a 3 µL drop of test solution onto freshly cleaved muscovite green mica disks as the support. The drop was allowed to stand undisturbed for 3 minutes to favor the adsorbate-substrate interaction. Each DNA-laden disk was rinsed with Milli-Q water and was blown dry with clean compressed argon gas directed normal to the disk surface. The samples were stored over silica prior to AFM imaging. All AFM observations were made with a Nanoscope III Multimode AFM (Digital Instruments, Santa Barbara, CA). Nanocrystalline Si cantilevers ([…] in length) with an average spring constant of 50 N/m terminating in conical-shaped Si probe tips (10 nm apical radius and cone angle of 35°) were utilized. High-resolution topographic AFM images of 2×2 µm areas of different specimens were obtained in air at room temperature (relative humidity <40%). The AFM was operated in intermittent contact mode at a rate of 1–3 Hz.

p53 = test: Real-time RT-PCR gene expression, p53; assay type: cell-based, murine; details: S180 cells, 40 µM, 6 h; p>0.05
Experimental: The S180 cells were treated with 40 µM complex 2 for 6 h. Total RNA was extracted with Trizol reagent (Sigma-Aldrich, USA) following the manufacturer's protocol. Total RNA (2.0 µg) was used to produce complementary DNA (cDNA) with random primers (Applied Biosystems, USA) in a 20 µL reaction mixture according to the manufacturer's protocol.
Real-time PCR was carried out using a Line Gene K (Bioer Technology) instrument. Real-time PCR reactions were carried out in a 20 µL reaction mixture, including 2 µL of cDNA, 10 µL of SYBR Green PCR Master Mix (LGC Biotechnology, UK), and 2.0 µL of 400 nM forward and reverse primers. The PCR program was initiated at 95°C for 15 min followed by 40 cycles of 95°C for 15 s, 55°C for 15 s, and 72°C for 30 s. The data were analyzed according to the comparative Ct method and were normalized to the β-actin reference gene expression in each sample.

IC50 (S180 tumor cells): 31.2 ± 4.19 µM
activity of caspase-3 (caspase-3; 40 µM): 136.05%
activity of caspase-3 (caspase-3; 60 µM): 170.24%
Compound: F[P-](F)(F)(F)(F)F.NCC(=O)[O-].[Ru+2].c1ccc(-c2ccccn2)nc1.c1ccc(P(CCCCP(c2ccccc2)c2ccccc2)c2ccccc2)cc1 [Complex 2, [Ru(gly)(bipy)(dppb)]PF6]
percentage of cells with depolarized mitochondria (S180 cells; 40 µM): 45.2%
percentage of cells showing red fluorescence (upper-right quadrant) (S180 cells; 40 µM): 54.3%
percentage of cells with depolarized mitochondria (S180 cells; 60 µM): 52.6%
percentage of cells showing red fluorescence (upper-right quadrant) (S180 cells; 60 µM): 47.1%
interaction with pBR322 plasmid DNA (AFM images) (pBR322 plasmid DNA): did not covalently bind to DNA bases or intercalate between bases
expression level of p53 compared with control (p53): remained unchanged
